What all share (assay): NCI-60 cell line screen, 48 h
For assay [1], the system named is 786-0 renal.
Assay [2] has as its system HOP-62 NSCLC.
Assay [3] deals with HCT-116 colon.
Assay [4] deals with COLO 205 colon.
The subject of assay [5] is ACHN renal.
For assay [6], the system named is EKVX NSCLC.
Assay [7] deals with SN12C renal.
Assay [8] has as its system HCT-15 colon.
Assay [9] relates to MALME-3M melanoma.
Assay [10] relates to KM12 colon.

Values joined by “and” are separate entries in the source; they are usually repeats but may differ in a detail not shown here. Equal values may be shown once.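 Interpolation was linear, between the two tested concentrations surrounding the appropriate level; five concentrations were tested over 48 hours in 96-well plates. Here, GI50 denotes the concentration required for 50% inhibition of growth. At the TGI there is no net growth.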

`CCCCCCCCCCCCCCCCOP(=O)(O)OP(=O)(O)OCC1OC(n2ccc(N)nc2=O)C(O)C1O` (configuration not stated): the GI50 was > 100 µM and 26.2 µM in assay [1]; > 100 µM and 19.4 µM in [7]; > 100 µM and 46.7 µM in assay [9]. Further, the TGI in [1], in assay [2], in assay [3], in assay [4], in assay [5] and in [6] was over 100 µM each time. In addition, the TGI in assay [7], in assay [8], in assay [9] and in [10] was over 100 µM each time.

On to `CC/C(=C(/c1ccc(O)cc1)c1ccc(OCCN2CCCCC2)cc1)c1ccc(OC)cc1`, for which the GI50 in assay [1] is 1.28 µM; in assay [2], 1.83 µM; in [3], 1.15 µM; in [4], 1.49 µM; in assay [5] it was 1.94 µM; in assay [6] it was 4.05 µM. Besides, the GI50 is 2.82 µM in [7], 1.45 µM in assay [8], 1.42 µM in assay [9] and 2.63 µM in assay [10]. For the same compound, the TGI is 2.74 µM in assay [1]; 3.91 µM in assay [2]; 2.51 µM in assay [3]; 3.12 µM in [4]; 4.15 µM in [5]; 18.4 µM in assay [6]. Further, the TGI was 11.3 µM in assay [7], 5.46 µM in assay [8], 2.98 µM in assay [9] and 12.2 µM in assay [10].

With `CCCCN(CCCC)CCCn1c(=O)c2c3ccccc3n(C)c2n2nnc(-c3ccccc3)c12`, the GI50 in [1] was 39 µM; in assay [2] it was 30.6 µM; in assay [3], 18.4 µM; in [4], 5.01 µM; in assay [5], 34.7 µM; in assay [6] it was 56.3 µM. Moreover, the GI50 in assay [7] is 19.4 µM; in assay [8], 20.7 µM; in assay [9] it was 28.4 µM; in assay [10] it was 34.3 µM. The TGI was over 100 µM in assay [1]; over 100 µM in assay [2]; over 100 µM in assay [3]; 62.9 µM in assay [4]; over 100 µM in [5]; over 100 µM in [6]. For the same compound, the TGI in [7] is 94.8 µM; in [8], over 100 µM; in [9], 90 µM; in assay [10], over 100 µM.

`C[C@H]1[C@H]2[C@H]3CC[C@@H]4[C@@]5(C)C/C(=C/c6cccnc6)C(=O)C(C)(C)[C@@H]5CC[C@@]4(C)[C@]3(C)CC[C@]23CO[C@]1(C)[C@@H](C(=O)/C=C\c1cccnc1)C3`: the GI50 in assay [1] was 0.905 µM; in assay [2] it was 1.47 µM; in [3], 0.385 µM; in assay [4] it was 1.43 µM; in assay [5] it was 1.49 µM; in [6] it was 1.56 µM. The GI50 in assay [7] was 1.1 µM; in [8] it was 0.982 µM; in assay [9], 0.849 µM; in assay [10], 0.892 µM. Further, the TGI is 1.95 µM in assay [1]; over 15 µM in assay [2]; 1.28 µM in [3]; 4.53 µM in assay [4]; 4.81 µM in [5]; 6.4 µM in assay [6]. The TGI is over 11.8 µM in assay [7], 2.56 µM in assay [8], 1.91 µM in assay [9] and 1.86 µM in assay [10].

In the case of `CCOC(=O)/C(=C(/C)NCC(C)C)c1cc(O)c(O)c2c(C)cc(=O)[nH]c12`, the GI50 is 12.2 µM in assay [1]; 10.3 µM in assay [2]; 3.19 µM in assay [3]; over 100 µM in assay [4]; 7.99 µM in assay [5]; 5.45 µM in assay [6]. The GI50 is 4.96 µM in assay [7], 2.2 µM in [8], 11.4 µM in assay [9] and 12.4 µM in assay [10]. For the same compound, the TGI is 46.4 µM in [1]; 37 µM in [2]; 30.6 µM in assay [3]; over 100 µM in [4]; over 100 µM in [5]; over 100 µM in assay [6]. Besides, the TGI in [7] was over 100 µM; in [8] it was over 100 µM; in assay [9], 70.8 µM; in assay [10] it was over 100 µM.

`CC(=O)C1(N=Nc2ccc(S(N)(=O)=O)cc2)CCOC1=O` (configuration not stated): the TGI in assay [1], in [2], in [3], in [4], in [5] and in assay [6] was over 100 µM in each case. The TGI in [7], in [8], in assay [9] and in [10] was over 100 µM in each case.

As for `CCOC(=O)[C@@H](C)C[C@H](Cc1ccccc1)NC(=O)c1csc([C@@H](C[C@H](C(C)C)N(C)C(=O)[C@H](CC)NC(=O)[C@H]2CCCCN2C)OC(C)=O)n1`, the GI50 in [1] was 0.00387 µM; in assay [2], 0.00367 µM; in assay [3], under 0.00167 µM; in [4], under 0.00167 µM; in assay [5] it was 0.00196 µM; in assay [6], 0.00484 µM. For the same compound, the GI50 is 0.00515 µM in assay [7], 0.00628 µM in assay [8], under 0.00167 µM in assay [9] and under 0.00167 µM in [10]. Also, the TGI in assay [1] is over 16.7 µM; in [2], over 16.7 µM; in [3], 1.68 µM; in assay [4], 0.0211 µM; in assay [5], over 16.7 µM; in [6] it was over 16.7 µM. The TGI in assay [7], in [8], in assay [9] and in [10] was over 16.7 µM each time.

In the case of `COc1ccc(-c2c(-c3cc(OC)c(OC)c(OC)c3)noc2N)cc1`, the GI50 in assay [1] was under 0.017 µM; in [2], 0.0239 µM; in assay [3] it was under 0.01 µM; in assay [4], under 0.0123 µM; in assay [5] it was under 0.0141 µM; in assay [6], 1.03 µM. The GI50 in [7] was 0.0374 µM; in assay [8] it was under 0.0115 µM; in assay [9] it was 13.4 µM; in assay [10] it was under 0.01 µM. The TGI in [2] is 38.9 µM; in assay [3] it was over 32 µM; in assay [4] it was 0.0551 µM; in assay [5], 43.8 µM; in [6], over 100 µM; in assay [7], over 69.8 µM. Further, the TGI in assay [8] was over 100 µM; in assay [9] it was 56.8 µM; in assay [10], over 36.6 µM.

(Values after PubChem BioAssay (NCI).)
